# From PMC8007111, “Novel Potent Muscarinic Receptor Antagonists: Investigation on the Nature of Lipophilic Substituents in the 5- and/or 6-Positions of the 1,4-Dioxane Nucleus” (Journal of Medicinal Chemistry, 2020)
# Experiments:
# [1] = target: T1, hM1 mAChR (Homo sapiens, UniProt P11229); experiment: [3H]NMS inhibition radioligand binding, hM1 in CHO-K1 cell membranes; conditions: [3H]NMS, CHO-K1 cell membranes; mean ± S.E.M.
# T1 construct: expressed in transfected cells; host or cells: CHO-K1 (membrane preparation)
# T1 sequence (P11229 1-460): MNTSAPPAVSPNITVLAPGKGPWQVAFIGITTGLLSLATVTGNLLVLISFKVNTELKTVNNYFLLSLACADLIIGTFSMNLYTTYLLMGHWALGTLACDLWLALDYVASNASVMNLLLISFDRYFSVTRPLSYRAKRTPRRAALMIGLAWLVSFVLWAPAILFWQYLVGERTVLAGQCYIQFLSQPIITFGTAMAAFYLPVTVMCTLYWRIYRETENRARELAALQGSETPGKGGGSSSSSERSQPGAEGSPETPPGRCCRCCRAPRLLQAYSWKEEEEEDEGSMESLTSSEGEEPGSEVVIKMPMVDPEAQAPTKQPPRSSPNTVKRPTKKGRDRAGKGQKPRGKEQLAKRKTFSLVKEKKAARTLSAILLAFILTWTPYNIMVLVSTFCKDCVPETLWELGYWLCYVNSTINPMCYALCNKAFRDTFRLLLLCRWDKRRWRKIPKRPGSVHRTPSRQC
# [2] = target: T2, hM2 mAChR (Homo sapiens, UniProt P08172); experiment: [3H]NMS inhibition radioligand binding, hM2 in CHO-K1 cell membranes; conditions: [3H]NMS, CHO-K1 cell membranes; mean ± S.E.M.
# T2 construct: expressed in transfected cells; host or cells: CHO-K1 (membrane preparation)
# T2 sequence (P08172 1-466): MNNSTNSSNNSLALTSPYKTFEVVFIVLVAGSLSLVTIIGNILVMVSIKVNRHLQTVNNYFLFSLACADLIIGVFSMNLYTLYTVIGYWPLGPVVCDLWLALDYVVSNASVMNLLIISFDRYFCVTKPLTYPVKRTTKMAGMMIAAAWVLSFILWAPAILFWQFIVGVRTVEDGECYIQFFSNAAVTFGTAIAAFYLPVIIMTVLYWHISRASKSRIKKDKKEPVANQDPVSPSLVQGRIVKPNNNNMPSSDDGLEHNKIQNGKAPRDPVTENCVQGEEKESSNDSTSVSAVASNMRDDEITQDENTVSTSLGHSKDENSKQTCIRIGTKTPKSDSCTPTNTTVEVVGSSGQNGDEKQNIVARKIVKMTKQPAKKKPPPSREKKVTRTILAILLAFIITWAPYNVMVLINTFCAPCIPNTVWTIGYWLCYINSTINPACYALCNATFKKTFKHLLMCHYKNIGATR
# [3] = target: T3, hM3 mAChR (Homo sapiens, UniProt P20309); experiment: [3H]NMS inhibition radioligand binding, hM3 in CHO-K1 cell membranes
# T3 construct: expressed in transfected cells; host or cells: CHO-K1 (membrane preparation)
# [4] = target: T4, hM4 mAChR (Homo sapiens, UniProt P08173); experiment: [3H]NMS inhibition radioligand binding, hM4 in CHO-K1 cell membranes; conditions: [3H]NMS, CHO-K1 cell membranes; mean ± S.E.M.
# T4 construct: expressed in transfected cells; host or cells: CHO-K1 (membrane preparation)
# T4 sequence (P08173 1-479): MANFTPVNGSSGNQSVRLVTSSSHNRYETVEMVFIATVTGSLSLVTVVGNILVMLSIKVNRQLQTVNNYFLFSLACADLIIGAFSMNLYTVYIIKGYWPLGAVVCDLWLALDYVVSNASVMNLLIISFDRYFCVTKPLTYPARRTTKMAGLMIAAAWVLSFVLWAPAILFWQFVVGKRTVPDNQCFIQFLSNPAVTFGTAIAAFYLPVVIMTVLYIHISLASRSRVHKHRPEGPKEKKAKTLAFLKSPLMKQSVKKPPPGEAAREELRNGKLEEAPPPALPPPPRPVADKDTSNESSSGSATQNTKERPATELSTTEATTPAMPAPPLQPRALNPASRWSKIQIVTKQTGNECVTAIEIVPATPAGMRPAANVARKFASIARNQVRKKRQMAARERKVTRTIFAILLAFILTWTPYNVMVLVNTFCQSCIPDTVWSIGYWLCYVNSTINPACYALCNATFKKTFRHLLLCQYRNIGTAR
# T3 sequence (P20309 whole entry): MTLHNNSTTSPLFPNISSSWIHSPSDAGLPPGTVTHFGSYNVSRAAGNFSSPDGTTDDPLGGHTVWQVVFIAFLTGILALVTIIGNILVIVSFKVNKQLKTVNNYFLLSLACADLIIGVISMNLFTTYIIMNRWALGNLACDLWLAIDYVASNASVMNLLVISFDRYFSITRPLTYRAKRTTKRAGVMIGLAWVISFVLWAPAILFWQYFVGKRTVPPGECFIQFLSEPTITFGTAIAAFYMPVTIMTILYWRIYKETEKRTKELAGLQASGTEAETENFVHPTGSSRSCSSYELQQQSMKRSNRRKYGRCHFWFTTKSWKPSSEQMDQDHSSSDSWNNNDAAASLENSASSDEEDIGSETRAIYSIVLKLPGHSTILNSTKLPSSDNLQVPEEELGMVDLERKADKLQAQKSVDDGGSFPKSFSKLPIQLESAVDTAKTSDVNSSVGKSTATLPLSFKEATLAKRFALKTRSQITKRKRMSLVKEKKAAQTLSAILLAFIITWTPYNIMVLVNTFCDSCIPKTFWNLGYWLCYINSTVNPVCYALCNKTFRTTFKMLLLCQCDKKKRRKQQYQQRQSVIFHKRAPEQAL
compound,measurement,setting,value
"C[N+](C)(C)C[C@@H]1COC[C@](c2ccccc2)(C2CCCCC2)O1.[I-] (relative stereo) [3b, 1-((2R*,6R*)-6-Cyclohexyl-6-phenyl-1,4-dioxan-2-yl)-N,N,N-trimethylmethanaminium Iodide]",pKi hM1,[1],9.28 ± 0.19
same,pKi hM2,[2],7.91 ± 0.13
same,pKi hM3,"[3]; [3H]NMS, CHO-K1 cell membranes, mean ± S.E.M.",9.07 ± 0.03
same,M3/M2 selectivity ratio,[3]; from binding affinities at hM3 and hM2,14.5
same,pKi hM4,[4],9.03 ± 0.16
